Values of other authors as cited in patent US20110135569A1, “METHOD FOR THERAPEUTIC ADMINISTRATION OF RADIONUCLEOSIDES” (Peak Biosciences Inc., priority 2007, published 2011).

What was measured:
[1] = human subjects; locally injected or intra-arterially infused
replicating cancer cells = settings: low picomolar range, e.g. value

## O=c1[nH]c(=O)n([C@H]2C[C@H](O)[C@@H](CO)O2)cc1[125I] [^125IUDR, 5-[^125I]-iodouridine 2′-deoxyribonucleoside]
[1]
  plasma half-life: less than 5 minutes
Replicating cancer cells
  concentration able to destroy the chromosomes of replicating cancer cells: 5 picomoles/liter
